Earlier results, collected in patent US20050214224A1, “Lipid formulations for spontaneous drug encapsulation” (Nektar Therapeutics, priority 2003, published 2005).

Details: hydrated state; lipid excipient

Row | hydrated liquid transition temperature | SMILES
1 | 23.5 °C | CCCCCCCCCCCCCC(=O)OC[C@H](COP(=O)([O-])OCC[N+](C)(C)C)OC(=O)CCCCCCCCCCCCC [DMPC, dimyristoylphosphatidylcholine]
2 | 42 °C | CCCCCCCCCCCCCCCC(=O)OC[C@H](COP(=O)([O-])OCC[N+](C)(C)C)OC(=O)CCCCCCCCCCCCCCC [DPPC, dipalmitoylphosphatidylcholine]
